# Results: US10421761B2, “Compounds for kinase modulation, and indications therefor” (Plexxikon Inc., priority 2013, dated 2019)
# Tested on: B9 cells
# Settings: B9 cells
compound,measurement,setting,value
CCCS(=O)(=O)Nc1ccc(F)c(C(=O)c2c[nH]c3ncc(-c4ccc(Cl)cc4)cc23)c1F [vemurafenib],"probe 1455104_at response, Mxd1 (MAX dimerization protein 1)",Repl. 1,2.60
same,"probe 1455241_at response, BC037703 (cDNA sequence BC037703)",Repl. 1,0.44
same,"probe 1455299_at response, Vgll3 (vestigial like 3 (Drosophila))",Repl. 1,0.50
same,"probe 1455981_at response, Gm11263 /// Gm12242 /// Gm13654 /// Gm14138 /// Gm16406 /// Gm4796 /// Gm6476 /// Gm9143 /// LOC100043734 /// LOC236932 /// LOC623245 /// LOC639593 /// Rps6",Repl. 1,0.41
same,"probe 1456150_at response, Jhdm1d (jumonji C domain-containing histone demethylase 1 homolog D (S. cerevisiae))",Repl. 1,1.99
same,"probe 1456174_x_at response, Ndrg1 (N-myc downstream regulated gene 1)",Repl. 1,1.92
same,"probe 1456248_at response, Lce3f /// LOC630971 (late cornified envelope 3F /// hypothetical protein LOC630971)",Repl. 1,2.26
same,"probe 1456284_at response, Tmem171 (transmembrane protein 171)",Repl. 1,2.10
same,"probe 1456321_at response, Nipal1 (NIPA-like domain containing 1)",Repl. 1,3.42
same,"probe 1456725_x_at response, Ezr (ezrin)",Repl. 1,0.48
same,"probe 1456874_at response, Flrt2 (fibronectin leucine rich transmembrane protein 2)",Repl. 1,0.52
same,"probe 1457042_at response, AI256396 (EST AI256396)",Repl. 1,0.48
same,"probe 1457568_at response, Hnrnpd (heterogeneous nuclear ribonucleoprotein D)",Repl. 1,0.44
same,"probe 1457666_s_at response, Ifi202b (interferon activated gene 202B)",Repl. 1,3.60
same,"probe 1460220_a_at response, Csf1 (colony stimulating factor 1 (macrophage))",Repl. 1,0.40
same,"probe 1460302_at response, Thbs1 (thrombospondin 1)",Repl. 1,0.49
same,"probe 1460472_at response, Cdk3 (cyclin-dependent kinase 3)",Repl. 1,1.91
same,"probe 1460521_a_at response, Obfc2a (oligonucleotide/oligosaccharide-binding fold containing 2A)",Repl. 1,3.03
same,"probe 1460695_a_at response, 2010111I01Rik (RIKEN cDNA 2010111I01 gene)",Repl. 1,0.51
same,"probe 1415828_a_at response, Serp1 (stress-associated endoplasmic reticulum protein 1)",Repl. 2,1.88
same,"probe 1415936_at response, Bcar3 (breast cancer anti-estrogen resistance 3)",Repl. 2,2.16
same,"probe 1416129_at response, Errfi1 (ERBB receptor feedback inhibitor 1)",Repl. 2,3.11
same,"probe 1416246_a_at response, Coro1a (coronin, actin binding protein 1A)",Repl. 2,2.19
same,"probe 1416325_at response, Crisp 1 (cysteine-rich secretory protein 1)",Repl. 2,4.39
same,"probe 1416401_at response, Cd82 (CD82 antigen)",Repl. 2,2.64
same,"probe 1416488_at response, Ccng2 (cyclin G2)",Repl. 2,2.31
same,"probe 1416527_at response, Rab32 (RAB32, member RAS oncogene family)",Repl. 2,0.48
same,"probe 1417065_at response, Egr1 (early growth response 1)",Repl. 2,4.50
same,"probe 1417130_s_at response, Angptl4 (angiopoietin-like 4)",Repl. 2,2.79
same,"probe 1417328_at response, Ercc1 (excision repair cross-complementing rodent repair deficiency, complementation group 1)",Repl. 2,2.01
same,"probe 1417488_at response, Fosl1 (fos-like antigen 1)",Repl. 2,2.05
same,"probe 1417494_a_at response, Cp (ceruloplasmin)",Repl. 2,0.43
same,"probe 1417495_x_at response, Cp (ceruloplasmin)",Repl. 2,0.51
same,"probe 1417533_a_at response, Itgb5 (integrin beta 5)",Repl. 2,0.51
same,"probe 1417625_s_at response, Cxcr7 (chemokine (C-X-C motif) receptor 7)",Repl. 2,2.03
same,"probe 1417677_at response, Opn3 (opsin 3)",Repl. 2,2.39
same,"probe 1417812_a_at response, Lamb3 (laminin, beta 3)",Repl. 2,2.38
same,"probe 1417837_at response, Phlda2 (pleckstrin homology-like domain, family A, member 2)",Repl. 2,2.11
same,"probe 1417902_at response, Slc19a2 (solute carrier family 19 (thiamine transporter), member 2)",Repl. 2,2.07
same,"probe 1417962_s_at response, Ghr (growth hormone receptor)",Repl. 2,2.14
same,"probe 1418349_at response, Hbegf (heparin-binding EGF-like growth factor)",Repl. 2,2.70
same,"probe 1418350_at response, Hbegf (heparin-binding EGF-like growth factor)",Repl. 2,2.46
same,"probe 1418538_at response, Kdelr3 (KDEL (Lys-Asp-Glu-Leu) endoplasmic reticulum protein retention receptor 3)",Repl. 2,2.02
same,"probe 1418539_a_at response, Ptpre (protein tyrosine phosphatase, receptor type, E)",Repl. 2,1.89
same,"probe 1419149_at response, Serpine1 (serine (or cysteine) peptidase inhibitor, clade E, member 1)",Repl. 2,1.99
same,"probe 1419188_s_at response, Ccl27a /// Gm13306 (chemokine (C-C motif) ligand 27A /// predicted gene 13306)",Repl. 2,2.36
same,"probe 1419317_x_at response, Lce3c (late cornified envelope 3C)",Repl. 2,2.58
same,"probe 1419322_at response, Fgd6 (FYVE, RhoGEF and PH domain containing 6)",Repl. 2,2.45
same,"probe 1419529_at response, Il23a (interleukin 23, alpha subunit p19)",Repl. 2,2.53
same,"probe 1419671_a_at response, Il17rc (interleukin 17 receptor C)",Repl. 2,0.45
same,"probe 1419722_at response, Klk8 (kallikrein related-peptidase 8)",Repl. 2,1.94
same,"probe 1419816_s_at response, Errfi1 (ERBB receptor feedback inhibitor 1)",Repl. 2,3.39
same,"probe 1420352_at response, Prss22 (protease, serine, 22)",Repl. 2,3.13
same,"probe 1420380_at response, Cc12 (chemokine (C-C motif) ligand 2)",Repl. 2,0.41
same,"probe 1420407_at response, Ltb4r1 (leukotriene B4 receptor 1)",Repl. 2,2.24
same,"probe 1420450_at response, Mmp10 (matrix metallopeptidase 10)",Repl. 2,3.93
same,"probe 1420537_at response, Kctd4 (potassium channel tetramerisation domain containing 4)",Repl. 2,2.58
same,"probe 1420760_s_at response, Ndrg1 (N-myc downstream regulated gene 1)",Repl. 2,2.04
same,"probe 1420913_at response, Slco2a1 (solute carrier organic anion transporter family, member 2a1)",Repl. 2,1.96
same,"probe 1420955_at response, Vsnl1 (visinin-like 1)",Repl. 2,0.47
same,"probe 1421134_at response, Areg (amphiregulin)",Repl. 2,4.16
same,"probe 1421269_at response, Ugcg (UDP-glucose ceramide glucosyltransferase)",Repl. 2,2.16
same,"probe 1421279_at response, Lamc2 (laminin, gamma 2)",Repl. 2,2.11
same,"probe 1421403_at response, Pi15 (peptidase inhibitor 15)",Repl. 2,1.96
same,"probe 1421551_s_at response, Ifi202b (interferon activated gene 202B)",Repl. 2,3.42
same,"probe 1421668_x_at response, Speer3 (spermatogenesis associated glutamate (E)-rich protein 3)",Repl. 2,2.60
same,"probe 1421679_a_at response, Cdkn1a (cyclin-dependent kinase inhibitor 1A (P21))",Repl. 2,4.13
same,"probe 1421888_x_at response, Aplp2 (amyloid beta (A4) precursor-like protein 2)",Repl. 2,0.63
same,"probe 1421943_at response, Tgfa (transforming growth factor alpha)",Repl. 2,1.92
same,"probe 1422028_a_at response, Ets1 (E26 avian leukemia oncogene 1, 5′ domain)",Repl. 2,1.91
same,"probe 1422101_at response, Tnfrsf23 (tumor necrosis factor receptor superfamily, member 23)",Repl. 2,1.93
same,"probe 1422138_at response, Plau (plasminogen activator, urokinase)",Repl. 2,2.19
same,"probe 1422139_at response, Plau (plasminogen activator, urokinase)",Repl. 2,2.82
same,"probe 1422222_at response, Ivl (involucrin)",Repl. 2,2.27
same,"probe 1422240_s_at response, Sprr2h (small proline-rich protein 2H)",Repl. 2,1.98
same,"probe 1422273_at response, Mmp1b (matrix metallopeptidase 1b (interstitial collagenase))",Repl. 2,3.17
same,"probe 1422324_a_at response, Pthlh (parathyroid hormone-like peptide)",Repl. 2,2.28
same,"probe 1422537_a_at response, Id2 (inhibitor of DNA binding 2)",Repl. 2,0.49
same,"probe 1422771_at response, Smad6 (MAD homolog 6 (Drosophila))",Repl. 2,0.47
same,"probe 1422924_at response, Tnfsf9 (tumor necrosis factor (ligand) superfamily, member 9)",Repl. 2,1.94
same,"probe 1423017_a_at response, Il1rn (interleukin 1 receptor antagonist)",Repl. 2,2.03
same,"probe 1423543_at response, Swap70 (SWA-70 protein)",Repl. 2,1.95
same,"probe 1423597_at response, Atp8a1 (ATPase, aminophospholipid transporter (APLT), class I, type 8A, member 1)",Repl. 2,1.88
same,"probe 1423635_at response, Bmp2 (bone morphogenetic protein 2)",Repl. 2,2.23
same,"probe 1423690_s_at response, Gpsm1 (G-protein signalling modulator 1 (AGS3-like, C. elegans))",Repl. 2,3.20
same,"probe 1423933_a_at response, 1600029D21Rik (RIKEN cDNA 1600029D21 gene)",Repl. 2,2.01
same,"probe 1424022_at response, Osgin1 (oxidative stress induced growth inhibitor 1)",Repl. 2,1.92
same,"probe 1424090_at response, Sdcbp2 (syndecan binding protein (syntenin) 2)",Repl. 2,4.46
same,"probe 1424306_at response, Elovl4 (elongation of very long chain fatty acids (FEN1/Elo2, SUR4/Elo3, yeast)-like 4)",Repl. 2,2.35
same,"probe 1424383_at response, Tmem51 (transmembrane protein 51)",Repl. 2,2.69
same,"probe 1424471_at response, Rapgef3 (Rap guanine nucleotide exchange factor (GEF) 3)",Repl. 2,1.89
same,"probe 1424638_at response, Cdkn1a (cyclin-dependent kinase inhibitor 1A (P21))",Repl. 2,2.67
same,"probe 1424783_a_at response, Ugt1a1 /// Ugt1a10 /// Ugt1a2 /// Ugt1a5 /// Ugt1a6a /// Ugt1a6b /// Ugt1aTc /// Ugt1a9 (UDP glucuronosyltransferase 1 family)",Repl. 2,0.43
same,"probe 1425452_s_at response, Fam84a (family with sequence similarity 84, member A)",Repl. 2,2.53
same,"probe 1425660_at response, Btbd3 (BTB (POZ) domain containing 3)",Repl. 2,1.92
same,"probe 1426037_a_at response, Rgs16 (regulator of G-protein signaling 16)",Repl. 2,2.93
same,"probe 1426181_a_at response, I124 (interleukin 24)",Repl. 2,4.76
same,"probe 1426260_a_at response, Ugt1a1 /// Ugt1a10 /// Ugt1a2 /// Ugt1a5 /// Ugt1a6a /// Ugt1a6b /// Ugt1aTc /// Ugt1a9 (UDP glucuronosyltransferase 1 family)",Repl. 2,0.45
same,"probe 1426300_at response, Alcam (activated leukocyte cell adhesion molecule)",Repl. 2,2.44
same,"probe 1426306_a_at response, LOC100046560 /// Maged2 (similar to melanoma antigen family D, 2 /// melanoma antigen, family D, 2)",Repl. 2,1.87
same,"probe 1426708_at response, Antxr2 (anthrax toxin receptor 2)",Repl. 2,2.15
same,"probe 1426806_at response, Obfc2a (oligonucleotide/oligosaccharide-binding fold containing 2A)",Repl. 2,2.02
same,"probe 1426848_at response, LOC100047481 /// Sec24b (similar to SEC24 related gene family, member B (S. cerevisiae) /// Sec24 related gene family, member B (S. cerevisiae))",Repl. 2,0.75
same,"probe 1426972_at response, Sec24d (Sec24 related gene family, member D (S. cerevisiae))",Repl. 2,2.26
same,"probe 1427278_at response, Clip4 (CAP-GLY domain containing linker protein family, member 4)",Repl. 2,2.03
same,"probe 1427364_a_at response, Odc1 (ornithine decarboxylase, structural 1)",Repl. 2,2.62
same,"probe 1427512_a_at response, Lama3 (laminin, alpha 3)",Repl. 2,2.47
same,"probe 1427527_a_at response, Pthlh (parathyroid hormone-like peptide)",Repl. 2,2.37
same,"probe 1427885_at response, Pold4 (polymerase (DNA-directed), delta 4)",Repl. 2,2.27
same,"probe 1428114_at response, Slc14a1 (solute carrier family 14 (urea transporter), member 1)",Repl. 2,2.47
same,"probe 1428195_at response, Ahcyl2 (S-adenosylhomocysteine hydrolase-like 2)",Repl. 2,2.06
same,"probe 1428228_at response, Pgm3 (phosphoglucomutase 3)",Repl. 2,2.13
same,"probe 1428419_at response, 5430411K18Rik (RIKEN cDNA 5430411K18 gene)",Repl. 2,2.28
same,"probe 1428851_at response, 1300014I06Rik (RIKEN cDNA 1300014I06 gene)",Repl. 2,2.01
same,"probe 1429700_at response, 3110040M04Rik (RIKEN cDNA 3110040M04 gene)",Repl. 2,2.47
same,"probe 1429844_at response, 2310043J07Rik (RIKEN cDNA 2310043J07 gene)",Repl. 2,0.53
same,"probe 1430010_at response, Ncapd2 (non-SMC condensin I complex, subunit D2)",Repl. 2,0.49
same,"probe 1430567_at response, Spink5 (serine peptidase inhibitor, Kazal type 5)",Repl. 2,0.53
